Results published in patent publication US6458806B1, “Aryl alkenamides derivatives as MCP-1 antagonists” (Millennium Pharmaceuticals, Inc., priority 1996, dated 2002).
Where a name gives a salt, the structure may show the parent alone.

Biological target: T1, MCP-1 receptor (Homo sapiens, UniProt P41597)
T1 construct: host or cells: THP-1 cell membranes
Experiment: MCP-1 binding assay (125I-MCP-1, THP-1 cell membranes)
Details: 0.2 nM 125I-labeled MCP-1, averages of several or two experiments, read-out: Inhibition Of MCP-1 Binding IC50
Protocol: Membranes used in the MCP-1 binding assay were prepared from THP-1 cells (human monocytic cell line source—American Type Culture Collection, Tumor Immunology Bank #202, Rockville, Md., accession no. ATCC TIB 202). Cells were harvested by centrifugation and washed twice in ice-cold PBS (phosphate-buffered saline) and the cell pellet was frozen at −80° C. in some cases. Cells were resuspended in ice-cold lysis buffer 5mM HEPES (2-(4N-,[2-hydroxyethyl] piperazin-1-yl)-N′-(2-ethanesulfonic acid), pH 7.5, 2 mM EDTA (ethylenediaminetetraacetic acid), 5 ug/ml each leupeptin, aprotinin, chymostatin (protease inhibitors), and 100 ug/ml PMSF (phenylmethane sulfonyl fluoride—also a protease inhibitor)) at a concentration of 5×10^7 cells/ml. […] Typical binding assays used 10-20 ug/well of total membrane protein as determined with a standard protein assay (e.g. BioRad, Richmond, Calif.).
For binding, 10-20 ug total membrane protein were included in the binding reaction along with 0.2 nM I^125-labeled MCP-1 (Amersham, Arlington Heights, Ill.) with or without unlabeled competitor MCP-1 (Peprotech, Rocky Hill, N.J.) (at 250-500 nM). […] Filters were dried and counted in a Beta-Plate scintillation counter using standard scintillation fluid. […]
IC50s were calculated using a non-linear 3-parameter logistic curve fit. […]

T1 sequence (P41597 whole entry): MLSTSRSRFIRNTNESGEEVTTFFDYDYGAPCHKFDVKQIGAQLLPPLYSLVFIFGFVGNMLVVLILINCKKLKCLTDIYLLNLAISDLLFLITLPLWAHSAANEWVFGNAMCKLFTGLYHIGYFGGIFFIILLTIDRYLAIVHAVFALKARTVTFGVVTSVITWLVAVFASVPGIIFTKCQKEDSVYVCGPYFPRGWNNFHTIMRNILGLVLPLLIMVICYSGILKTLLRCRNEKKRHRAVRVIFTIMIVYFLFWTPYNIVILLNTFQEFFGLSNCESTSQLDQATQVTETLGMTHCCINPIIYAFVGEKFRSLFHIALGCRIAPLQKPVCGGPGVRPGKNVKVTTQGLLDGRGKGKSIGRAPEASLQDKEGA

IC50: 2200 nM
SMILES: O=C(/C=C/C=C/c1ccc(Cl)c(Cl)c1)NCCCN1CCCCC1 [Example 1, 5-(3,4-Dichloro-phenyl)-penta-2,4-dienoic Acid (3-piperidin-1-yl-propyl)-amide-HCl]
